In the test the target is T1, full-length SHP2^T42A (Homo sapiens, UniProt Q06124, T42A).
T1 construct: Full-length SHP2 constructs were diluted in assay buffer; His6-TEV (N, cleaved yes); made in house; host or cells: E. coli BL21(DE3)
T1 sequence (Q06124 1-593 T42A): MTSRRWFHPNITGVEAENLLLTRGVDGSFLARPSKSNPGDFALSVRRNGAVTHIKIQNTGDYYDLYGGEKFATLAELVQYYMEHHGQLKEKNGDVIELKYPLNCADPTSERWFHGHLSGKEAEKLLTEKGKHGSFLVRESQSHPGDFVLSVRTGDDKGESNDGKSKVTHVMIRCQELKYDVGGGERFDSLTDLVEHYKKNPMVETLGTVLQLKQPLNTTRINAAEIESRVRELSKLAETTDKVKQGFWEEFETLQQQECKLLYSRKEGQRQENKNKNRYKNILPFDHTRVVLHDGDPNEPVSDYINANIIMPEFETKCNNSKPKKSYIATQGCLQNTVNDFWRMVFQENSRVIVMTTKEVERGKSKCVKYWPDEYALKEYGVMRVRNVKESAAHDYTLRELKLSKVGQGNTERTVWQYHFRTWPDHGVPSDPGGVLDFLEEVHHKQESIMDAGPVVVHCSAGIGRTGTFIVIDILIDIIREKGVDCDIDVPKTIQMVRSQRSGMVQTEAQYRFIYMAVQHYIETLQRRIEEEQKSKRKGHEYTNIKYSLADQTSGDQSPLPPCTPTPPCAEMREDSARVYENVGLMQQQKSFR
In words: SHP2 activation assay using phosphopeptides (DiFMUP), SHP2 T42A. The following applies: activation of full-length SHP2 T42A (0.05 nM) by phosphopeptide; DiFMUP substrate; HEPES pH 7.2 assay buffer; mean of N (column N). It is filed as biochemical.
What is called EC50 is the concentration giving half of the maximal effect. High values mean weaker potency, low ones greater potency. The molecule `CC[C@H](C)[C@H](NC(=O)[C@@H](NC(=O)[C@H](C)NC(=O)[C@H](Cc1ccc(OP(=O)(O)O)cc1)NC(=O)[C@@H](NC(=O)[C@@H]1CCCN1C(=O)[C@H](CCC(=O)O)NC(=O)[C@@H]1CCCN1C(=O)[C@H](CO)NC(=O)[C@@H](NC(C)=O)C(C)C)[C@@H](C)CC)[C@@H](C)O)C(=O)N[C@@H](CC(=O)O)C(=O)N[C@@H](CC(=O)O)C(=O)N[C@@H](CC(C)C)C(N)=O` gave a concentration for a half-maximal effect (EC50) of 6960 nM.

`CC(=O)N[C@@H](CO)C(=O)N[C@H](C(=O)NCC(=O)N[C@@H](CO)C(=O)N[C@H](C(=O)N[C@@H](CC(=O)O)C(=O)N[C@@H](Cc1ccc(OP(=O)(O)O)cc1)C(=O)N[C@@H](CC(C)C)C(=O)N[C@@H](C)C(=O)N[C@@H](CC(C)C)C(=O)N[C@@H](CC(=O)O)C(=O)N[C@@H](Cc1ccccc1)C(=O)N[C@@H](CCC(N)=O)C(N)=O)C(C)C)[C@@H](C)O` returned an EC50 of 902 nM.

In the case of `CC[C@H](C)[C@H](NC(=O)[C@H](Cc1ccc(OP(=O)(O)O)cc1)NC(=O)[C@H](CC(N)=O)NC(=O)[C@H](CC(C)C)NC(=O)CNC(=O)[C@H](CC(N)=O)NC(=O)[C@H](CCC(=O)O)NC(=O)[C@H](CC(C)C)NC(C)=O)C(=O)N[C@@H](CC(=O)O)C(=O)N[C@@H](CC(C)C)C(=O)N[C@@H](CC(=O)O)C(=O)N[C@@H](CC(C)C)C(=O)N[C@H](C(N)=O)C(C)C`, the EC50 worked out at 581 nM.

For the molecule `CC[C@H](C)[C@H](NC(=O)[C@H](CC(N)=O)NC(=O)[C@@H](NC(=O)[C@H](Cc1ccc(OP(=O)(O)O)cc1)NC(=O)[C@H](CCC(=O)O)NC(=O)CNC(=O)[C@@H]1CCCN1C(=O)[C@H](CO)NC(=O)[C@H](CCCCN)NC(=O)[C@@H]1CCCN1C(C)=O)C(C)C)C(=O)N[C@@H](CCC(=O)O)C(=O)N[C@@H](Cc1ccccc1)C(=O)NCC(N)=O`, it took 20000 nM to reach a half-maximal effect (EC50).

`CSCC[C@H](NC(=O)[C@H](CC(C)C)NC(=O)[C@H](CCC(N)=O)NC(=O)[C@H](C)NC(=O)[C@H](Cc1ccc(OP(=O)(O)O)cc1)NC(=O)[C@H](CC(N)=O)NC(=O)[C@H](CC(C)C)NC(=O)[C@H](C)NC(=O)[C@H](C)NC(=O)[C@H](CCCCN)NC(=O)[C@H](CCCCN)NC(C)=O)C(=O)N[C@@H](Cc1ccccc1)C(=O)N1CCC[C@H]1C(N)=O` came in with an EC50 of 735 nM.

The molecule `CC(=O)N[C@@H](C)C(=O)N[C@@H](CCCCN)C(=O)N[C@@H](CO)C(=O)NCC(=O)N[C@@H](C)C(=O)N[C@H](C(=O)N[C@@H](Cc1ccc(OP(=O)(O)O)cc1)C(=O)N[C@@H](CO)C(=O)N[C@@H](CCC(=O)O)C(=O)N[C@@H](CC(C)C)C(=O)N[C@@H](CC(N)=O)C(=O)N[C@@H](Cc1ccccc1)C(=O)NCC(N)=O)C(C)C` registered an EC50 of 32700 nM.

In turn, `CC(=O)N1CCC[C@H]1C(=O)N[C@H](C(=O)N[C@@H](Cc1ccccc1)C(=O)N[C@@H](CO)C(=O)N[C@H](C(=O)N[C@@H](CC(=O)O)C(=O)N[C@@H](Cc1ccc(OP(=O)(O)O)cc1)C(=O)NCC(=O)N[C@@H](CCC(=O)O)C(=O)N[C@@H](CC(C)C)C(=O)N[C@@H](CC(=O)O)C(=O)N[C@@H](Cc1ccccc1)C(=O)N[C@@H](CCC(N)=O)C(N)=O)C(C)C)C(C)C` had a 50% effective concentration (EC50) of 2890 nM. Against the preceding molecule, the EC50 is about 11-fold lower.

`CC[C@H](C)[C@H](NC(=O)[C@@H](NC(=O)[C@H](C)NC(=O)[C@H](Cc1ccc(OP(=O)(O)O)cc1)NC(=O)[C@H](CCC(=O)O)NC(=O)[C@@H](NC(=O)[C@H](CCC(N)=O)NC(=O)[C@H](CCC(=O)O)NC(=O)[C@@H]1CCCN1C(=O)[C@@H](NC(C)=O)C(C)C)[C@@H](C)O)[C@@H](C)O)C(=O)N[C@H](C(=O)N[C@@H](Cc1ccccc1)C(=O)N1CCC[C@H]1C(N)=O)C(C)C` displayed an EC50 of 880 nM.

Regarding `CC[C@H](C)[C@H](NC(=O)[C@H](CC(=O)O)NC(=O)[C@H](C)NC(=O)[C@H](Cc1ccc(OP(=O)(O)O)cc1)NC(=O)[C@H](CCCCN)NC(=O)[C@@H](NC(=O)[C@H](CC(=O)O)NC(=O)CNC(=O)[C@H](CCCCN)NC(=O)[C@H](CCSC)NC(C)=O)C(C)C)C(=O)N[C@@H](CCC(=O)O)C(=O)N[C@@H](CO)C(=O)N[C@@H](CO)C(N)=O`, the concentration giving a half-maximal response (EC50) was determined as 15100 nM.

Source of the values: doi:10.1101/2023.07.10.548257 (bioRxiv, 2024).
